Tests used:
[1] = test system: IL6R-ss+10aa/Gaussia Luciferase; experiment: Dox-induced IL-6R-ss-Gluc Assay; type: cell-based; conditions: Table 1; for IC50: Flp-In 293 T-REx cells, 24 hours with doxycycline, read-out: 24hr Dox Inducible IL6R(ss + 10)Gluc 293FRT/TO: Mean IC50; for 24hr Dox Inducible IL6R(ss + 10)Gluc 293FRT/TO: IL6R/PD1: ratio of IC50s IL6R/PD1
Outline: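 Flp-In 293 T-REx cells stably carrying a doxycycline-inducible IL6R signal sequence+10 aa fused to Gaussia luciferase. Cells plated the day before; compound dilutions added in DMSO/media containing doxycycline and incubated at 37 °C, 5% CO2.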

[2] = Liver Microsome Stability Assay, monkey; type: in vitro ADME; conditions: monkey liver microsomes 1.0 mg/mL, 1.0 uM compound, 37° C., 1 mM NADPH
Outline: (§1)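 1.0 uM cpd, 0.4% DMSO, 1.0 mg/mL microsomes, 0.1 M KPi, 37° C, ±1 mM NADPH; quench 0 and 30 min.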

[3] = test system: CD47(ss + 10)Gluc; experiment: Dox-Induced CD47-ss-Gluc Assay; type: cell-based; conditions: Flp-In 293 T-REx cells, 24 hours with doxycycline; Table 1; read-out: 24 hr Dox Inducible CD47(ss + 10)Gluc 293FRT/TO: Mean IC50
[4] = Liver Microsome Stability Assay, human; type: in vitro ADME; conditions: human liver microsomes 1.0 mg/mL, 1.0 uM compound, 37° C., 1 mM NADPH
Outline: as §1

[5] = Liver Microsome Stability Assay, rat; type: in vitro ADME; conditions: rat liver microsomes 1.0 mg/mL, 1.0 uM compound, 37° C., 1 mM NADPH
Outline: as §1

[6] = test system: IL-2-FL/Gaussia Luciferase; experiment: Dox Inducible IL2-FL-Gluc Assay; type: cell-based; conditions: Table 1; for IC50: Flp-In 293 T-REx cells, 24 hours with doxycycline, read-out: 24 hr Dox Inducible IL2FLGluc 293FRT/TO: Mean IC50; for 24 hr Dox Inducible IL2FLGluc 293FRT/TO: IL2/PD1: ratio of IC50s IL2/PD1
Outline: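 A hygromycin- and blasticidin-resistant 293 T-REx clone carrying inducible IL-2–Gaussia luciferase (full-length IL-2, residues 1-153) serves as the cell system. After overnight plating, the cells get test compounds together with doxycycline in DMSO/media and are incubated at 37° C, 5% CO2.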

[7] = test system: multiple myeloma cell line U266B1; experiment: U266 Cell Viability Assay; type: cell-based; conditions: Homo sapiens, U-266; U266B1 cells, 48 hours, Celltiter-Glo; read-out: 48 hr U266 Viability Celltiter-Glo: Mean EC50
Outline: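 After growth in serum-supplemented RPMI 1640, cells received serially diluted compound in DMSO/media and were kept 48 hours before a CellTiter-Glo luminescence readout.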

[8] = test system: PD1-ss+10aa/Gaussia Luciferase; experiment: Dox-Induced PD1-ss-Gluc Assay; type: cell-based; conditions: Flp-In 293 T-REx cells, 24 hours with doxycycline; Table 1; read-out: 24 hr Dox Inducible PD1ssGluc 293FRT/TO: Mean IC50
Outline: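 Stable Flp-In 293 T-REx cells carried a doxycycline-inducible construct of Gaussia luciferase fused to the PD1 signal sequence plus 10 amino acids. Cells were plated the day before, then treated with compound dilutions in DMSO/media containing doxycycline at 37 °C, 5% CO2.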

[9] = Liver Microsome Stability Assay, mouse; type: in vitro ADME; conditions: mouse liver microsomes 1.0 mg/mL, 1.0 uM compound, 37° C., 1 mM NADPH
Outline: as §1

[10] = test system: multiple myeloma cell line NCI-H929; experiment: H929 Cell Viability Assay; type: cell-based, human; conditions: NCI-H929 cells, 48 hours, Celltiter-Glo; for EC50: Homo sapiens, read-out: 48 hr H929 Viability Celltiter-Glo: Mean EC50
Outline: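 A 48-hour compound treatment of cells in 10% FBS RPMI medium was followed by luciferase-based viability quantification.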

SMILES | IC50 [1] [µM] | 24hr Dox Inducible IL6R(ss + 10)Gluc 293FRT/TO: IL6R/PD1 [1] | Liver Microsome Stability (Multiple Species): Monkey - % Remaining after 30 min w/ NADPH (%) [2] [%] | IC50 [3] [µM] | Liver Microsome Stability (Multiple Species): Human - % Remaining after 30 min w/ NADPH (%) [4] [%] | Liver Microsome Stability (Multiple Species): Rat - % Remaining after 30 min w/ NADPH (%) [5] [%] | IC50 [6] [µM] | 24 hr Dox Inducible IL2FLGluc 293FRT/TO: IL2/PD1 [6] | EC50 [7] [µM] | IC50 [8] [µM] | Liver Microsome Stability (Multiple Species): Mouse - % Remaining after 30 min w/ NADPH (%) [9] [%] | EC50 [10] [µM] | 48 hr H929 Viability Celltiter-Glo: Mean EC50 (nM) [10]
CC(C)n1cnc(/C=C/c2csc(NC(=O)c3cccn3Cc3ccnc(F)c3)n2)c1C#N [Compound B20, (E)-N-(4-(2-(5-cyano-1-isopropyl-1H-imidazol-4-yl)vinyl)thiazol-2-yl)-1-((2-fluoropyridin-4-yl)methyl)-1H-pyrrole-2-carboxamide] | 1.32 | 146 | <1 | 1.52 | <1 | 33 | 1.53 | 170.0 | 15.7 | 0.009 | 5 | 8.36 | 
CC(=O)N[C@H]1CC[C@H](/C=C/c2csc(NC(=O)c3cccn3Cc3ccncc3)n2)CC1 [Compound B17] | 23.8 | 5 | <1 | > 25 | <1 | 17 | 8.24 | 1.6 | 8.61 | 5.1 | 4 | 5.11 | 
N#Cc1ocnc1/C=C/c1csc(NC(=O)c2cccn2Cc2ccnc(F)c2)n1 [Compound B19, (E)-N-(4-(2-(5-cyanooxazol-4-yl)vinyl)thiazol-2-yl)-1-((2-fluoropyridin-4-yl)methyl)-1H-pyrrole-2-carboxamide] | > 25 | >79 | 6 | > 25 | 7 | 1 | > 25 | >79 | > 25 | 0.318 | 22 | > 25 | 
COc1cc(C(=O)Nc2nc(/C=C/c3ncn(C4CC4)c3Cl)cs2)n(Cc2ccnc(F)c2)c1 [Compound A13, (E)-N-(4-(2-(5-chloro-1-cyclopropyl-1H-imidazol-4-yl)vinyl)thiazol-2-yl)-1-((2-fluoropyridin-4-yl)methyl)-4-methoxy-1H-pyrrole-2-carboxamide] | 2.56 | 489 | 9 | 2.03 | 48 | 62 | 2.31 | 440 | > 25 | 0.005 | 16 | > 25 | 
CCOc1cc(C(=O)Nc2nc(/C=C/c3ncn(C4CC4)c3Cl)cs2)n(Cc2ccnc(F)c2)c1 [Compound A17, (E)-N-(4-(2-(5-chloro-1-cyclopropyl-1H-imidazol-4-yl)vinyl)thiazol-2-yl)-4-ethoxy-1-((2-fluoropyridin-4-yl)methyl)-1H-pyrrole-2-carboxamide] | 2.1 | 240 | 17 | 2.74 | 26 | 2 | 3.02 | 340 | > 25 | 0.009 | 72 |  | I.A
[2H]C([2H])(c1ccnc(F)c1)n1cc(OC)cc1C(=O)Nc1nc(/C=C/c2ncn(C3CC3)c2Cl)cs1 [Compound A14, (E)-N-(4-(2-(5-chloro-1-cyclopropyl-1H-imidazol-4-yl)vinyl)thiazol-2-yl)-1-((2-fluoropyridin-4-yl)methyl-d2)-4-methoxy-1H-pyrrole-2-carboxamide] | 2.11 | 318 | 4 | 3.31 | 29 | 20 | 3.44 | 520 | > 25 | 0.007 | 76 | > 25 | 
[2H]c1nc(/C=C/c2csc(NC(=O)c3cccn3Cc3ccnc(F)c3)n2)cn1C(C)C [Compound B21] | > 25 | >385 | <1 | > 25 | <1 | 20 | > 25 | >380 | 24.2 | 0.065 | 11 | 17.5 | 
O=C(Nc1nc(/C=C/c2ncn(C3CC3)c2Cl)cs1)c1cc(OCF)cn1Cc1ccnc(F)c1 [Compound A19, (E)-N-(4-(2-(5-chloro-1-cyclopropyl-1H-imidazol-4-yl)vinyl)thiazol-2-yl)-4-(fluoromethoxy)-1-((2-fluoropyridin-4-yl)methyl)-1H-pyrrole-2-carboxamide] | 2.91 | 287 | 51 | 4.35 | 4 | 23 | 3.66 | 360 | > 25 | 0.01 | 65 | > 25 | 

From US20250171434A1, “SEC61 INHIBITORS AND USE THEREOF” (KEZAR LIFE SCIENCES, INC., priority 2022, published 2025)
